In patent publication US12428406B2 (PMV Pharmaceuticals, Inc., priority 2019, dated 2025):

biological target: T1, p53 Y220C (Homo sapiens, UniProt P04637, Y220C); assay: In vitro DNA binding activity assay (HTRF / TR-FRET): stabilization of p53 Y220C and increase of its DNA binding activity; type: biochemical; details: recombinant His-tagged p53 Y220C DNA binding domain (aa 94-312), biotin-labeled consensus DNA, incubated at 27° C. or 29° C. for 60 min
T1 construct: The recombinant protein was a truncation mutant containing only amino acids 94-312 of p53; made in house; host or cells: E. coli
T1 sequence (P04637 94-312, change not shown): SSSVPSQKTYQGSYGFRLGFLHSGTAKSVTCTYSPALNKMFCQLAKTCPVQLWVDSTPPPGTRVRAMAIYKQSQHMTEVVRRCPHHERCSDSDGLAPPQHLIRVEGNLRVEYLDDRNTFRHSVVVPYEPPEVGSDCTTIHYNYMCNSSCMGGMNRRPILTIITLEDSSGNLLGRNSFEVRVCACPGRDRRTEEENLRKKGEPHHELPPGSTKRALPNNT
Summary of the method: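 Homogeneous time-resolved fluorescence with E. coli-derived p53 Y220C and biotinylated consensus DNA. Room-temperature incubations of 15 and 20 min precede reading. SC150 denotes the compound concentration required for 50% increased DNA binding.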

| SMILES | SC150 (concentration of the compound required to increase the DNA binding activity by 50%) |
| --- | --- |
| CN(C)[C@H]1CC[C@H](Nc2cccc3c2cc(C#CCNc2ccc(S(C)(=O)=O)cc2OC(F)(F)F)n3CC(F)(F)F)CC1 [Compound 142A] | + (+ = 0 μM ≤ SC150 < 0.05 μM) |
| CN1CC[C@@H](Nc2cccc3c2cc(C#CCO)n3CC(F)(F)F)[C@@H](F)C1 [Compound 895A, 3-(4-(((3S,4R)-3-fluoro-1-methylpiperidin-4-yl)amino)-1-(2,2,2-trifluoroethyl)-1H-indol-2-yl)prop-2-yn-1-ol] | +++ (+++ = 0.1 μM ≤ SC150 < 0.2 μM) |
| COc1cncc(-c2ccc(NCC#Cc3cc4c(NC5CCN(C)CC5)cccc4n3CC(F)(F)F)c(OC)c2)c1 [Compound 494A, 2-(3-{[2-methoxy-4-(5-methoxypyridin-3-yl)phenyl]amino}prop-1-yn-1-yl)-N-(1-methylpiperidin-4-yl)-1-(2,2,2-trifluoroethyl)-1H-indol-4-amine] | + (+ = 0 μM ≤ SC150 < 0.05 μM) |
| COCC(O)CN1CCC(Nc2c(OC)ccc3c2cc(C#CCNc2ccc(S(C)(=O)=O)cc2OC)n3CC(F)(F)F)CC1 (stereo not drawn) [Compound 643A, 1-{4-[(2-{3-[(4-methanesulfonyl-2-methoxyphenyl)amino]prop-1-yn-1-yl}-5-methoxy-1-(2,2,2-trifluoroethyl)-1H-indol-4-yl)amino]piperidin-1-yl}-3-methoxypropan-2-ol] | +++ (+++ = 0.1 μM ≤ SC150 < 0.2 μM) |
| COc1cc(S(N)(=O)=O)ccc1NCC#Cc1cc2c(N[C@@H]3CCO[C@@H](C)C3)cccc2n1CC(F)(F)F [Compound 1018A, 3-methoxy-4-{[3-(4-{[(2S,4R)-2-methyloxan-4-yl]amino}-1-(2,2,2-trifluoroethyl)-1H-indol-2-yl)prop-2-yn-1-yl]amino}benzene-1-sulfonamide] | + (+ = 0 μM ≤ SC150 < 0.05 μM) |
| COCC(O)CN1CCC(Nc2cccc3c2cc(C#CCNc2ccc(S(C)(=O)=O)cc2OC(F)(F)F)n3CC(F)(F)F)CC1 (stereo not drawn) [Compound 710A, 1-(4-{[2-(3-{[4-methanesulfonyl-2-(trifluoromethoxy)phenyl]amino}prop-1-yn-1-yl)-1-(2,2,2-trifluoroethyl)-1H-indol-4-yl]amino}piperidin-1-yl)-3-methoxypropan-2-ol] | + (+ = 0 μM ≤ SC150 < 0.05 μM) |
| CNC(=O)c1ccc(NCC#Cc2cc3c(N[C@@H]4CCN(C)C[C@@H]4F)cccc3n2CC(F)(F)F)c(OC)c1 [Compound 804A, 4-{[3-(4-{[(3S,4R)-3-fluoro-1-methylpiperidin-4-yl]amino}-1-(2,2,2-trifluoroethyl)-1H-indol-2-yl)prop-2-yn-1-yl]amino}-3-methoxy-N-methylbenzamide] | + (+ = 0 μM ≤ SC150 < 0.05 μM) |
| COc1cc(S(C)(=O)=O)ccc1NCC#Cc1cc2c(NC(=O)NC3CCN(C4CCOCC4)CC3)cccc2n1CC(F)(F)F [Compound 14A, 3-(2-{3-[(4-methanesulfonyl-2-methoxyphenyl)amino]prop-1-yn-1-yl}-1-(2,2,2-trifluoroethyl)-1H-indol-4-yl)-1-[1-(oxan-4-yl)piperidin-4-yl]urea] | ++++ (++++ = 0.2 μM ≤ SC150 < 1 μM) |
| CNC(=O)c1ccc(NCC#Cc2cc3c(N[C@H]4CC[C@@H](N5CC6(COC6)C5)CC4)cccc3n2CC(F)(F)F)c(OCCOC)c1 [Compound 237A, 3-(2-methoxyethoxy)-N-methyl-4-{[3-(4-{[(1S,4S)-4-{2-oxa-6-azaspiro[3.3]heptan-6-yl}cyclohexyl]amino}-1-(2,2,2-trifluoroethyl)-1H-indol-2-yl)prop-2-yn-1-yl]amino} benzamide] | + (+ = 0 μM ≤ SC150 < 0.05 μM) |
| COc1cc(S(=O)(=O)N2CCN(C)CC2)ccc1NCC#Cc1cc2c(NC3CCOCC3)cccc2n1CC(F)(F)F [Compound 1011A, 2-[3-({2-methoxy-4-[(4-methylpiperazin-1-yl)sulfonyl]phenyl}amino)prop-1-yn-1-yl]-N-(oxan-4-yl)-1-(2,2,2-trifluoroethyl)-1H-indol-4-amine] | + (+ = 0 μM ≤ SC150 < 0.05 μM) |
| CNC(=O)c1ccc(NCC#Cc2cc3c(NC4CCN(CC(O)COC)CC4)cccc3n2CC(F)(F)F)c(OCCOC)c1 (stereo not drawn) [Compound 653A, 4-{[3-(4-{[1-(2-hydroxy-3-methoxypropyl)piperidin-4-yl]amino}-1-(2,2,2-trifluoroethyl)-1H-indol-2-yl)prop-2-yn-1-yl]amino}-3-(2-methoxyethoxy)-N-methylbenzamide] | + (+ = 0 μM ≤ SC150 < 0.05 μM) |
| COCC(O)CN1CCC(Nc2cccc3c2cc(C#CCNc2ccc(S(C)(=O)=O)cc2OC)n3CC(F)F)CC1 (stereo not drawn) [Compound 709A, 1-(4-{[1-(2,2-difluoroethyl)-2-{3-[(4-methanesulfonyl-2-methoxyphenyl)amino]prop-1-yn-1-yl}-1H-indol-4-yl]amino}piperidin-1-yl)-3-methoxypropan-2-ol] | + (+ = 0 μM ≤ SC150 < 0.05 μM) |
| COc1cc(C(=O)O)ccc1NCC#Cc1cc2c(N[C@@H]3CCN(C)C[C@@H]3F)cccc2n1CC(F)(F)F [Compound 781A, 4-{[3-(4-{[(3S,4R)-3-fluoro-1-methylpiperidin-4-yl]amino}-1-(2,2,2-trifluoroethyl)-1H-indol-2-yl)prop-2-yn-1-yl]amino}-3-methoxybenzoic acid] | + (+ = 0 μM ≤ SC150 < 0.05 μM) |
| COc1cc(S(N)(=O)=O)ccc1NCC#Cc1cc2c(N[C@H]3CC[C@H](N4CC[S+]([O-])CC4)CC3)cccc2n1CC(F)(F)F [Compound 370A, 3-methoxy-4-{[3-(4-{[(1R,4R)-4-(1-oxo-1λ^4-thiomorpholin-4-yl)cyclohexyl]amino}-1-(2,2,2-trifluoro-ethyl)-1H-indol-2-yl)prop-2-yn-1-yl]amino} benzene-1-sulfonamide] | + (+ = 0 μM ≤ SC150 < 0.05 μM) |
| COc1cc(C(=O)N[C@@H]2[C@@H](O)[C@H](O)[C@@H](CO)O[C@H]2O)ccc1NCC#Cc1cc2c(N[C@@H]3CCN(C)C[C@@H]3F)cccc2n1CC(F)(F)F [Compound 948A, 4-((3-(4-(((3S,4R)-3-fluoro-1-methylpiperidin-4-yl)amino)-1-(2,2,2-trifluoroethyl)-1H-indol-2-yl)prop-2-yn-1-yl)amino)-3-methoxy-N-((2R,3R,4R,5S,6R)-2,4,5-trihydroxy-6-(hydroxymethyl)tetrahydro-2H-pyran-3-yl)benzamide] | + (+ = 0 μM ≤ SC150 < 0.05 μM) |
| CNC(=O)c1ccc(NCC#Cc2cc3c(NC4CCN(C(C)C)CC4)cccc3n2CC(F)(F)F)c(OC)c1 [Compound 539A, 3-methoxy-N-methyl-4-{[3-(4-{[1-(propan-2-yl)piperidin-4-yl]amino}-1-(2,2,2-trifluoroethyl)-1H-indol-2-yl)prop-2-yn-1-yl]amino}benzamide] | + (+ = 0 μM ≤ SC150 < 0.05 μM) |
| COc1cc(S(N)(=O)=O)ccc1NCC#Cc1cc2c(N[C@H]3CCN(C(C)=O)[C@@H](C)C3)cccc2n1CC(F)(F)F [Compound 740A, 4-{[3-(4-{[(2S, 4S)-1-acetyl-2-methylpiperidin-4-yl]amino}-1-(2,2,2-trifluoroethyl)-1H-indol-2-yl)prop-2-yn-1-yl]amino}-3-methoxybenzene-1-sulfonamide] | + (+ = 0 μM ≤ SC150 < 0.05 μM) |
| CS(=O)(=O)c1ccc(NCC#Cc2cc3c(N[C@H]4CC[C@H](N5CC6(COC6)C5)CC4)cccc3n2CC(F)(F)F)c(OCC#N)c1 [Compound 222A, 2-(5-methanesulfonyl-2-{[3-(4-{[(1R,4R)-4-{2-oxa-6-azaspiro[3.3]heptan-6-yl}cyclo-hexyl]amino}-1-(2,2,2-trifluoroethyl)-1H-indol-2-yl)prop-2-yn-1-yl]amino}phenoxy) acetonitrile] | + (+ = 0 μM ≤ SC150 < 0.05 μM) |
| CNC(=O)c1ccc(NCC#Cc2cc3c(N[C@H]4CC[C@H](N(C)C)CC4)cccc3n2CC(F)(F)F)c(OCF)c1 [Compound 106A, 3-(fluoromethoxy)-N-methyl-4-{[3-(4-{[(1R,4R)-4-(dimethyl-amino)cyclohexyl]amino}-1-(2,2,2-trifluoro-ethyl)-1H-indol-2-yl)prop-2-yn-1-yl]amino}benzamide] | + (+ = 0 μM ≤ SC150 < 0.05 μM) |
| COCC(O)CN1CCC(Nc2cccc3c2cc(C#CCNc2ccc(S(C)(=O)=O)cc2OC)n3CC2CC2(F)F)CC1 (stereo not drawn) [Compound 704A, 1-[4-({1-[(2,2-difluorocyclopropyl)methyl]-2-{3-[(4-methanesulfonyl-2-methoxyphenyl)amino]prop-1-yn-1-yl}-1H-indol-4-yl}amino)piperidin-1-yl]-3-methoxypropan-2-ol] | ++ (++ = 0.05 μM ≤ SC150 < 0.1 μM) |
| COCCCN1CCC(Nc2cccc3c2cc(C#CCNc2ccc(S(C)(=O)=O)cc2OC)n3CC(F)(F)F)CC1 [Compound 675A, 2-{3-[(4-methanesulfonyl-2-methoxyphenyl)amino]prop-1-yn-1-yl}-N-[1-(3-methoxypropyl)piperidin-4-yl]-1-(2,2,2-trifluoroethyl)-1H-indol-4-amine] | + (+ = 0 μM ≤ SC150 < 0.05 μM) |
